{"source": "patent US20150285818A1", "about": "“Switchable Reporter Enzymes for Homogenous Antibody Detection” (TECHNISCHE UNIVERSITEIT EINDHOVEN, priority 2012, published 2015)", "key": {"anti-Dengue-1 antibody": {"target": "anti-Dengue-1 antibody", "experiment": "Peptide binding assay using fluorescence polarization, anti-Dengue-1", "conditions": "read-out: Kd, fluorescence polarization titration (Eq. 8); 10 nM fluorescein-labeled peptide titrated with antibody"}, "anti-HIV1-p17 antibody": {"target": "anti-HIV1-p17 antibody", "experiment": "Peptide binding assay using fluorescence polarization, anti-HIV1-p17"}, "anti-HA antibody": {"target": "anti-HA antibody", "experiment": "Peptide binding assay using fluorescence polarization, anti-HA"}, "[1]": {"conditions": "read-out: Kd, fluorescence polarization titration (Eq. 8), 10 nM fluorescein-labeled short epitope peptide titrated with antibody"}}, "note": "Where “and” joins values, the source holds several entries; their conditions need not be identical. Equal values may be shown once. Read-outs that look alike come from different tables or passages of the source. Fluorescein = fluorescein label attached to a cysteine side chain"}
{"substance": "EHKYSWKS", "values": [{"measurement": "Kd", "setting": "anti-Dengue-1 antibody", "result": 70, "unit": "nM"}]}
{"substance": "EHKYSWKS-GGG-C(Fluorescein)", "values": [{"measurement": "Kd", "setting": "anti-Dengue-1 antibody", "result": "70 ± 13", "unit": "nM"}]}
{"substance": "ELDRWEKIRLRP", "values": [{"measurement": "Kd", "setting": "anti-HIV1-p17 antibody; read-out: Kd (Kd1) of non-labeled peptide, competition assay (Eqs. 9 and 10), antibody and fluorescein-labeled peptide 100 nM each, titrated with non-labeled peptide", "result": "42 ± 1", "unit": "nM"}]}
{"substance": "ELDRWEKIRLRP-GGG-C(Fluorescein)", "values": [{"measurement": "Kd", "setting": "anti-HIV1-p17 antibody; read-out: Kd, fluorescence polarization titration (Eq. 8), 10 nM fluorescein-labeled peptide titrated with antibody", "result": "24 ± 3", "unit": "nM"}]}
{"substance": "WEKIRLR", "values": [{"measurement": "Kd", "setting": "anti-HIV1-p17 antibody; [1]", "result": "~3000 nM and 3300 nM"}]}
{"substance": "WEKIRLR-GGG-C(Fluorescein) (Ac-WEKIRLRGGGC(Fluorescein)-NH2)", "values": [{"measurement": "Kd", "setting": "anti-HIV1-p17 antibody; [1]", "result": "3300 ± 200", "unit": "nM"}]}
{"substance": "YPYDVPDYA", "values": [{"measurement": "Kd", "setting": "anti-HA antibody; read-out: Kd (Kd1) of non-labeled peptide, competition assay (Eqs. 9 and 10), antibody and fluorescein-labeled peptide 10 nM each, titrated with non-labeled peptide", "result": "4.5 nM and ~5 nM"}]}
{"substance": "YPYDVPDYA-GGG-C(Fluorescein)", "values": [{"measurement": "Kd", "setting": "anti-HA antibody; read-out: Kd, fluorescence polarization titration (Eq. 8), 2 nM fluorescein-labeled peptide titrated with antibody", "result": "0.58 ± 0.22", "unit": "nM"}]}
